Data taken from patent US4001248A, “N-cycloalkylmethyl decahydroisoquinolines” (Eli Lilly and Company, priority 1974, dated 1977).
Structures can show the parent of a compound that is named as a salt. Where two headings read alike, the source gives them in different places.

Key:
[1] = prior art; cited from earlier work
[2] = system: writhing in mice induced by the intraperitoneal injection of acetic acid; assay: mouse-writhing test (inhibition of writhing induced by intraperitoneal acetic acid); type: in vivo; details: for ED50: Mus musculus, read-out: Median inhibiting dose (I.D.50)
Source text: In the Table, column 1 gives the name of the compund; column 2, the dosage in mg./kg. of mouse weight; column 3, the route of administration of the drug ("S.C." is subcutaneous and "or" is oral); and column 4, the percent inhibition found at the particular dose level. […] Median inhibiting doses (I.D.50) are also included in the Table.

[3] = system: rat tail jerk; assay: rat tail jerk assay (increase in reaction time over control); type: in vivo
Source text: The compounds of this invention are also active in the rat tail jerk assay, another standard pharmacologic test for analgesic activity of the opiate-type. Such activity is manifested as an increase in the reaction time of the animal in removing (jerking) its tail from a nearby heat stimulus (a resistance wire) after drug administration compared to control time (no drug administered). Table 2 which follows gives the increased reaction times over control times produced by the compounds of this invention when administered subcutaneously. In Tables 2 and 3, column 1 gives the name of the compound; column 2, the dose; column 3, time of observation after administration of the drug; column 4, the increase in reaction time above control in seconds; and column 5, the level of significance of the results ("p" value). […] All drugs were administered as aqueous solutions. More than one value for a given dose level indicates multiple determinations. The results are not averaged.

[4] = system: morphine; assay: modified rat tail jerk assay, antagonism of morphine; type: in vivo, rats
Experimental: The ability of the compounds of this invention to antagonize the action of morphine, an opiate, is shown by the following modification of the aforementioned rat tail jerk assay: The standard assay procedure is used with the exception that a 7 amps. current is used instead of a 6 amps. current in the hot wire to decrease the measurable agonist effects of the antagonist. The drugs under test are then administered to groups of rats at different dose levels at different times prior to test, with a 5 mg./kg. dose of morphine invariably being administered 10 minutes prior to test. Positive evidence of antagonism is a decreased reaction time over that to be expected from the morphine. […] Among the compounds of this invention, those in which R in Structure I is cyclopropylmethyl are the preferred antagonists, showing activity in the above test procedure. […] In a series of determinations, it was ascertained that the minimum subcutaneous dose necessary to reduce the analgesic effects of a 5 mg./kg. subcutaneous dose of morphine was in the range 2.5-5.0 mg./kg. and the minimum oral dose, 5-10 mg./kg.

[5] = 20 mg./kg. S.C., reading at 0.5 hours
[6] = 20 mg./kg. oral, reading at 0.5 hours
[7] = 100 mg./kg. S.C., reading at 0.5 hours
[8] = 100 mg./kg. oral, reading at 0.5 hours

SMILES: CC(C)=CCN1CCC2(C)c3cc(O)ccc3CC1C2C (stereo not shown) [pentazocine]
- dependance (addiction) liability [1]: retain a certain degree of opiate dependance liability
- opiate antagonist / agonist properties [1]: both antagonists and agonists

SMILES: Oc1cccc([C@]23CCCC[C@@H]2CN(CC2CCC2)CC3)c1 (relative stereo) [Trans-dl-1-cyclobutylmethyl-3a-(m-hydroxyphenyl)-1,2,3,3a,4,5,6,7,7a,8-decahydroisoquinoline maleate]
- % Inhibition ([2]; 1 mg./kg. S.C., reading at 0.5 hours): 46%
- % Inhibition ([2]; 2 mg./kg. S.C., reading at 0.5 hours): 96%
- % Inhibition [2, 5]: 100%
- % Inhibition [2, 6]: 36%
- % Inhibition [2, 7]: 100%
- % Inhibition [2, 8]: 100%
- Increase in Reaction Time Over Control ([3]; oral, 10 mg./kg., 10 min): .43 s
- Increase in Reaction Time Over Control ([3]; oral, 10 mg./kg., 30 min): .63 s
- Increase in Reaction Time Over Control ([3]; oral, 10 mg./kg., 60 min): .21 s
- Increase in Reaction Time Over Control ([3]; oral, 25 mg./kg., 30 min): 1.71 s
- Increase in Reaction Time Over Control ([3]; oral, 25 mg./kg., 60 min): 1.04 s
- Increase in Reaction Time Over Control ([3]; oral, 50 mg./kg., 30 min): 12.42 s
- Increase in Reaction Time Over Control ([3]; subcutaneous, 0.25 mg./kg., 30 min): .71 s
- Increase in Reaction Time Over Control ([3]; subcutaneous, 0.5 mg./kg., 30 min): .21 s
- Increase in Reaction Time Over Control ([3]; subcutaneous, 1 mg./kg., 10 min): .46 s
- Increase in Reaction Time Over Control ([3]; subcutaneous, 1 mg./kg., 30 min): 1.63 s
- Increase in Reaction Time Over Control ([3]; subcutaneous, 1 mg./kg., 60 min): .17 s
- Increase in Reaction Time Over Control ([3]; subcutaneous, 2 mg./kg., 10 min): 2.17 s
- Increase in Reaction Time Over Control ([3]; subcutaneous, 2 mg./kg., 30 min): 2.50 s
- Increase in Reaction Time Over Control ([3]; subcutaneous, 2 mg./kg., 60 min): .96 s
- Increase in Reaction Time Over Control ([3]; subcutaneous, 10 mg./kg., 10 min): 17.88 s
- Increase in Reaction Time Over Control ([3]; subcutaneous, 10 mg./kg., 30 min): 23.04 s
- Increase in Reaction Time Over Control ([3]; subcutaneous, 10 mg./kg., 60 min): 22.13 s

SMILES: CC(=O)Oc1ccc2c3c1O[C@H]1[C@@H](OC(C)=O)C=C[C@H]4[C@@H](C2)N(C)CC[C@@]341 [heroin]
- analgesic activity [1]: powerful agonist
- dependance (addiction) liability [1]: extremely high addiction potential

SMILES: CC1C2Cc3ccc(O)cc3C1(C)CCN2CCc1ccccc1 (stereo not shown) [phenazocine]
- dependance (addiction) liability [1]: retain a certain degree of opiate dependance liability
- opiate antagonist / agonist properties [1]: both antagonists and agonists

SMILES: Oc1cccc([C@]23CCCC[C@@H]2CN(CC2CC2)CC3)c1 (stereo in doubt) [Trans-dl-1-cyclopropylmethyl-3a-(m-hydroxyphenyl)-1,2,3,3a,4,5,6,7,7a,8-decahydroisoquinoline]
- % Inhibition ([2]; 2 mg./kg. S.C., reading at 0.25 hours): 43%
- % Inhibition ([2]; 5 mg./kg. S.C., reading at 0.25 hours): 70%
- ED50 ([2]; sc, S.C., readings of this compound at 0.25 hours): 2 to 5 mg/kg
- antagonism of morphine analgesia ([4]; 50 mg./kg. oral, 30 minutes prior to test, morphine 5 mg./kg. 10 minutes prior to test): reduces the analgesic response to 5 mg./kg. of morphine

SMILES: C=CCN1CC[C@]23c4c5ccc(O)c4O[C@H]2[C@@H](O)C=C[C@H]3[C@H]1C5 [nalorphine, N-allylnormorphine]
- opiate antagonist / agonist properties [1]: highly specific ability to reverse the depressant effects of morphine

SMILES: C=CCN1CC[C@]23c4c5ccc(OC)c4O[C@H]2[C@@H](O)C=C[C@H]3[C@H]1C5 [N-allylnorcodeine]
- opiate antagonist / agonist properties [1]: opiate antagonist

SMILES: COc1ccc2c3c1O[C@H]1[C@@H](O)C=C[C@H]4[C@@H](C2)N(C)CC[C@@]341 [codeine]
- analgesic activity [1]: relatively mild analgesic agonist
- dependance (addiction) liability [1]: slight dependance (addiction) liability

SMILES: COc1cccc([C@]23CCCC[C@@H]2CN(CC2CC2)CC3)c1 (relative stereo) [Trans-dl-1-cyclopropylmethyl-3a-(m-methoxyphenyl)-1,2,3,3a,4,5,6,7,7a,8-decahydroisoquinoline maleate]
- % Inhibition ([2]; 10 mg./kg. S.C., reading at 0.5 hours): 20%
- % Inhibition [2, 5]: 64%
- % Inhibition ([2]; 20 mg./kg. oral, reading at 0.25 hours): 5%
- % Inhibition [2, 6]: 13%
- % Inhibition ([2]; 50 mg./kg. oral, reading at 0.25 hours): 79%
- % Inhibition ([2]; 50 mg./kg. oral, reading at 0.5 hours): 69%
- % Inhibition [2, 7]: 100%
- % Inhibition ([2]; 100 mg./kg. oral, reading at 0.25 hours): 89%
- % Inhibition [2, 8]: 87%
- ED50 ([2]; sc, S.C.): 10 to 20 mg/kg
- ED50 ([2]; oral): 20 to 50 mg/kg
- Increase in Reaction Time Over Control ([3]; oral, 20 mg./kg., 30 min): 1.10 s
- Increase in Reaction Time Over Control ([3]; oral, 20 mg./kg., 120 min): .20 s
- Increase in Reaction Time Over Control ([3]; oral, 80 mg./kg., 30 min): 8.05 s
- Increase in Reaction Time Over Control ([3]; oral, 80 mg./kg., 120 min): 1.19 s
- Increase in Reaction Time Over Control ([3]; subcutaneous, 80 mg./kg., 30 min): 1.75 s
- Increase in Reaction Time Over Control ([3]; subcutaneous, 80 mg./kg., 120 min): 1.05 s

SMILES: COc1cccc([C@]23CCCC[C@@H]2CN(CC2CC2)CC3)c1 (relative stereo) [Trans-dl-1-cyclopropylmethyl-3a-(m-methoxyphenyl)-1,2,3,3a,4.5,6,7,7a,8-decahydroisoquinoline]
- antagonism of morphine ([4]; dose not stated): found to antagonize morphine
